# From PubChem BioAssay (NCI)
#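 Cultured in 96-well plates, cells were exposed to test compound for 48 hours across five concentrations. GI50 = concentration required for 50% inhibition of growth. The concentration for full growth arrest is given as TGI.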
# Tests used:
# Assay in all cases: NCI anticancer screen, dose series, 48 h
# [1] = system: CCRF-CEM leukemia
# [2] = system: COLO 205 colon
# [3] = system: DU-145 prostate
# [4] = system: HCT-116 colon
# [5] = system: MOLT-4 leukemia
# [6] = system: NCI-H460 lung
# [7] = system: NCI-H522 lung
# [8] = system: NCI/ADR-RES ovarian
# [9] = system: RPMI-8226 leukemia
# [10] = system: UO-31 renal
SMILES,GI50 [1],TGI [1],GI50 [2],TGI [2],GI50 [3],TGI [3],GI50 [4],TGI [4],GI50 [5],TGI [5],GI50 [6],TGI [6],GI50 [7],TGI [7],GI50 [8],TGI [8],GI50 [9],TGI [9],GI50 [10],TGI [10]
COc1cccc(-c2nn(-c3ccccc3)cc2-c2ccnc(NCCNS(=O)(=O)c3ccc(C(F)(F)F)cc3)c2)c1,2.34 µM,> 100 µM,1.87 µM,3.57 µM,5.09 µM,> 100 µM,3.27 µM,15.8 µM,1.93 µM,5.48 µM,3.47 µM,> 100 µM,2.33 µM,12.5 µM,2.79 µM,14.4 µM,2.42 µM,7.86 µM,2.61 µM,> 100 µM
CCCCCCN(CCCCCC)C(=N)c1ccnc2ccccc12,3.17 µM,18.4 µM,1.45 µM,2.97 µM,13.5 µM,26.6 µM,1.94 µM,14.1 µM,3.11 µM,17.2 µM,2.59 µM,12.7 µM,2.55 µM,11 µM,5.84 µM,21.1 µM,2.93 µM,11.6 µM,0.708 µM,13 µM
CC(=O)O[C@H](C[C@H](C(C)C)N(C)C(=O)[C@@H](NC(=O)[C@H]1CCCCN1C)C(C)C)c1nc(C(=O)N[C@@H](Cc2ccccc2)C[C@H](C)C(=O)O)c(C)s1,< 0.0025 µM,> 25 µM,< 0.0025 µM,0.00595 µM,< 0.0025 µM,> 25 µM,< 0.0025 µM,> 25 µM,< 0.0025 µM,> 25 µM,< 0.0025 µM,> 25 µM,< 0.0025 µM,> 25 µM,0.0574 µM,> 25 µM,< 0.0025 µM,> 25 µM,0.0161 µM,> 25 µM
O=c1ncc(-c2ccc(C(F)(F)F)cc2)c(NC2CCCCCC2)[nH]1,19.7 µM,48 µM,19.6 µM,34.7 µM,31.6 µM,98.1 µM,16.8 µM,33.6 µM,17.9 µM,43.1 µM,17.7 µM,35 µM,19.7 µM,44.4 µM,25.2 µM,68.2 µM,15.8 µM,39.6 µM,14.2 µM,38.9 µM
COc1ccc(OC)c(/C=C/c2nnc(Nc3ccc(Cl)cc3)o2)c1,> 100 µM,> 100 µM,16.6 µM,> 100 µM,11.4 µM,36.9 µM,2.97 µM,13.1 µM,> 100 µM,> 100 µM,3.77 µM,> 100 µM,7.13 µM,83.7 µM,7.62 µM,98.1 µM,> 100 µM,> 100 µM,3.13 µM,12.6 µM
CCN(Cc1ccc(F)cc1)c1ccc(CO)c(Cl)c1,15.9 µM,62.6 µM,1.35 µM,3.77 µM,15.2 µM,> 49.2 µM,0.0661 µM,3.02 µM,15.1 µM,42.6 µM,0.213 µM,11.7 µM,14.5 µM,40.1 µM,11.6 µM,34.4 µM,3.68 µM,36.3 µM,3.02 µM,31.5 µM
